This note sets out measurements from ChEMBL document CHEMBL2069183, “Inhibitor scaffold for the histone lysine demethylase KDM4C (JMJD2C)” (Bioorg Med Chem Lett, 2012).

The IC50 is the concentration needed to halve the response being measured. A lower IC50 goes with inhibition by little substance. By Ki is commonly meant the dissociation constant of the complex between target and ligand, obtained from inhibition or displacement. Low readings indicate a stronger hold on the target, high ones a looser hold on the target.

Activity calls are given as the source filed them. The calls are words filed in the database; no cut-off is given here. Some results are limits rather than exact numbers.

Chain of Alcohol dehydrogenase class-3 (Homo sapiens) (P11766 2-374 limits assumed): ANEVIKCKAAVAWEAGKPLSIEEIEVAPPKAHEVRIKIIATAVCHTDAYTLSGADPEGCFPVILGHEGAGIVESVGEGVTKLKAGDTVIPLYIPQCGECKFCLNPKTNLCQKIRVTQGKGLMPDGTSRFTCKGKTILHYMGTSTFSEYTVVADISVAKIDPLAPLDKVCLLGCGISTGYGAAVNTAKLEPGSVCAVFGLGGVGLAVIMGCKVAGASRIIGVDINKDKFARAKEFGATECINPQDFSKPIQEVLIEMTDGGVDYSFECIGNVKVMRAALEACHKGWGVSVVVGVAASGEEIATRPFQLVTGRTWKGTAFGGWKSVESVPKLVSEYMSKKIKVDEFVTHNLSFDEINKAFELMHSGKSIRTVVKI
Chain of Lysine-specific demethylase 6A (O15550 whole entry): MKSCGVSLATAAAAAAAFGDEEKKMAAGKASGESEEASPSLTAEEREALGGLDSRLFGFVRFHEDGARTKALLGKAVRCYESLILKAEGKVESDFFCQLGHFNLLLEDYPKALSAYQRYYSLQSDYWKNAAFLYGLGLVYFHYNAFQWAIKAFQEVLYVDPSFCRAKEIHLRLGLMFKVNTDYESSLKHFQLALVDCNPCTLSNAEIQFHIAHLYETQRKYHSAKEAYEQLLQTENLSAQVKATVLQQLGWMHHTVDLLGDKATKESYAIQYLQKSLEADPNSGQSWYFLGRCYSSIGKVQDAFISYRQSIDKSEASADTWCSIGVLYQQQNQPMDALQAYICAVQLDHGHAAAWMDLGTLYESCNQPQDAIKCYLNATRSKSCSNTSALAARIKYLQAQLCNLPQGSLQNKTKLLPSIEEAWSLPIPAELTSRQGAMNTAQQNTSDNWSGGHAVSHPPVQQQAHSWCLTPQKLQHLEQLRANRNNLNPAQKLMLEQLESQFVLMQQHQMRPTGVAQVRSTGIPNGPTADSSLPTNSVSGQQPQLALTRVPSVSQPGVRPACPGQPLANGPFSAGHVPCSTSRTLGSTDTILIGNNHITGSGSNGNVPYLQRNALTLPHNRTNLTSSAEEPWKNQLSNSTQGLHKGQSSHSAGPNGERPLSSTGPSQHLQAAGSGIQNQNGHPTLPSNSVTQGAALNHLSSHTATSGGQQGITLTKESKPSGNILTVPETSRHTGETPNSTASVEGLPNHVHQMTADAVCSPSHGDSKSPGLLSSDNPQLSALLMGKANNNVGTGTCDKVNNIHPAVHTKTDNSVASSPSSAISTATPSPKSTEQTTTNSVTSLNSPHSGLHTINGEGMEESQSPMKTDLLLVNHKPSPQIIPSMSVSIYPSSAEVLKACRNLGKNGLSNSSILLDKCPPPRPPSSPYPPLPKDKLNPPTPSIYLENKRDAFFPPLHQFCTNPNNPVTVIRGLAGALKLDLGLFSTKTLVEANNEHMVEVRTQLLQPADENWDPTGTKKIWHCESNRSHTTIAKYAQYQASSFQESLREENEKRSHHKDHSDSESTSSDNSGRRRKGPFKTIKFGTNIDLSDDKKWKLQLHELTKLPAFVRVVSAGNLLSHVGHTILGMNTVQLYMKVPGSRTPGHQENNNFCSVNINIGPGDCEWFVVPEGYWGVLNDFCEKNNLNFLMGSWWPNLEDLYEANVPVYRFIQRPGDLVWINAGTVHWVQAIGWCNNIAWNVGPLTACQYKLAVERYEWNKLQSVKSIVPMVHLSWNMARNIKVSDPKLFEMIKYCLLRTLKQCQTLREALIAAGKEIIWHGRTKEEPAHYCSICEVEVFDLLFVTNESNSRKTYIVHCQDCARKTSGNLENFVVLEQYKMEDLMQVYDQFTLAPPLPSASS

The first experiment addresses Lysine-specific demethylase 6A (Homo sapiens, UniProt O15550). Briefly: Inhibition of KDM6A.
Details: not given
`O=C(O)c1ccnc(C(=O)O)c1` registered a 50% inhibitory concentration (IC50) of 177 µM.

A further experiment concerns the target T1, Lysine-specific demethylase 4C (Homo sapiens) (UniProt Q9H3R0).
T1 sequence (whole entry): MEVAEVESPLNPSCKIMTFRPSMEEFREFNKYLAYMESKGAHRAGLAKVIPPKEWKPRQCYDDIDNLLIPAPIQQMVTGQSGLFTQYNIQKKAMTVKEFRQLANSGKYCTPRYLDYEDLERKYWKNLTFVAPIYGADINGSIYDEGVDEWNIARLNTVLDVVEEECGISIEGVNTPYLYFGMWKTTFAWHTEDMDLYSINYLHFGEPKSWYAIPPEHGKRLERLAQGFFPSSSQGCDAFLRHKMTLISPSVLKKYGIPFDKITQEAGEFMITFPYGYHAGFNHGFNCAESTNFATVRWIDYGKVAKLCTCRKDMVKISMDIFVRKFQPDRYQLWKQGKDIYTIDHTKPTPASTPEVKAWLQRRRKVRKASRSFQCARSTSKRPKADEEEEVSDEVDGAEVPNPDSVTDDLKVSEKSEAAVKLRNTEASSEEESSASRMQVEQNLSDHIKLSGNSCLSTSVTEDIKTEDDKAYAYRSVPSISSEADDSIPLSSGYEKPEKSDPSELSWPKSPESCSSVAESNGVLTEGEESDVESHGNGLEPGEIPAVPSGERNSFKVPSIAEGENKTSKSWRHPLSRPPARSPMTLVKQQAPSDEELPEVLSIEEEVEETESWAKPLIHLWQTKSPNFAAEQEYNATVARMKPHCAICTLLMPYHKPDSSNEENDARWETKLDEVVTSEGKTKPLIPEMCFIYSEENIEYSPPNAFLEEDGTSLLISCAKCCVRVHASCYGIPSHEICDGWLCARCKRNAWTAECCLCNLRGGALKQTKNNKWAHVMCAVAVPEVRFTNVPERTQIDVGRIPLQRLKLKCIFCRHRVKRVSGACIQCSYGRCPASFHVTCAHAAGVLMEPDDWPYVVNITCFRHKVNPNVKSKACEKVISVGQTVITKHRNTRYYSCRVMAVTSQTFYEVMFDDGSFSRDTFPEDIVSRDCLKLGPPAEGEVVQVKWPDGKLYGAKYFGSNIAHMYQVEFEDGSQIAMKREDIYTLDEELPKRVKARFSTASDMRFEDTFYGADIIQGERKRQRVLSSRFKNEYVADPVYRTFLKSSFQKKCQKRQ
Conditions: 500 uM.
Description: Inhibition of KDM4C catalytic core-mediated demethylation of ARK(Me)3STGGK at 500 uM after 30 mins by FDH-coupled assay in presence of increasing concentration of Fe(II) ions
Take `COC(=O)c1n[nH]c(C(=O)OC)c1O`: the inhibition result was “inactive”.

Another experiment addresses Alcohol dehydrogenase class-3 (Homo sapiens) (UniProt P11766). The experiment can be described thus: Inhibition of FDH using formalin as substrate at 0.01 to 500 uM after 30 mins by fluorimetry.
Details: not given
As to `COC(=O)c1n[nH]c(C(=O)OC)c1O`, the inhibition entry is “inactive”.

Regarding `Cc1c(O)c(C=O)nn1-c1ccccc1`, the inhibition entry is “inactive”.

In a further experiment the target is T2, Lysine-specific demethylase 4C (Homo sapiens, UniProt Q9H3R0).
T2 sequence (Q9H3R0 whole entry): T1 sequence (whole entry)
The experiment can be described thus: Inhibition of KDM4C catalytic core-mediated demethylation of ARK(Me)3STGGK after 30 mins by FDH-coupled assay.
Details: not given
`[O-][n+]1nn(Cc2ccccc2)cc1Cl` yielded a 50% inhibitory concentration (IC50) above 200 µM and an inhibitory constant (Ki) above 200 µM.

As for `[O-][n+]1nn(-c2ccccc2)c(CO)c1Cl`, the IC50 is above 200 µM and the Ki is above 200 µM.

In the case of `COC(=O)c1n[nH]c(C(=O)OC)c1O`, it took 30 µM to reach half-maximal inhibition (IC50) and the Ki was 51 µM.

On to `Cc1ccc(Cn2cc(C(=O)O)nn2)cc1`, for which the IC50 was above 200 µM and the Ki was above 200 µM.

The compound `Cn1c(Cl)cnc1CO` showed a concentration for half-maximal inhibition (IC50) above 200 µM and a Ki above 200 µM.

As for `[O-][n+]1nn(-c2ccccc2)c(Cl)c1Br`, the IC50 is above 200 µM and the inhibition constant (Ki) is above 200 µM.

`C[n+]1ccnn1-c1ccccc1`: the IC50 was above 200 µM and the inhibition constant Ki is above 200 µM.

`OCC1C(Cl)=NNN1c1ccccc1` (stereo unspecified) showed an IC50 above 200 µM and an inhibition constant Ki above 200 µM.

For `Nc1cn(-c2ccccc2)nn1`, the half-inhibitory concentration (IC50) is above 200 µM and the inhibitory constant (Ki) was above 200 µM.

Turning to `CSc1c(Cl)[n+]([O-])nn1-c1ccccc1`, the IC50 was above 200 µM and the Ki was above 200 µM.

The compound `Cc1ccc(-n2nc(C(=O)c3ccccc3)c(O)c2C)cc1` displayed an IC50 above 200 µM and an inhibition constant (Ki) above 200 µM.

`Cn1cc(N)nn1` yielded an IC50 above 200 µM and a Ki above 200 µM.

Compound `CN1CN(Cc2ccccc2)C=C1S` came in with an IC50 above 200 µM and an inhibition constant Ki above 200 µM.

Regarding `O=C(O)c1cnn(-c2ccccc2)n1`, the 50% inhibitory concentration (IC50) was above 200 µM and the inhibitory constant (Ki) was above 200 µM.

The compound `[O-][n+]1nn(-c2ccccc2)c(Cl)c1Cl` came in with an IC50 above 200 µM and a Ki above 200 µM.

On to `[O-][n+]1nn(Cc2ccccc2)cc1Br`, for which the IC50 is above 200 µM and the Ki was above 200 µM.

`COn1nnc(C(=O)O)c1C(=O)O` had an IC50 above 200 µM and an inhibitory constant (Ki) above 200 µM.

With `Cn1cc(Cl)nc1Cl`, the IC50 is above 200 µM and the inhibitory constant (Ki) was above 200 µM.

For the compound `Brc1cn(Cc2ccccc2)nn1`, the IC50 was above 200 µM and the Ki was above 200 µM.

Compound `O=C1CN=C(c2ccccc2)c2cc([N+](=O)[O-])ccc2N1` [NITRAZEPAM] came in with an IC50 above 200 µM and a Ki above 200 µM.

Compound `[O-][n+]1nn(-c2ccccc2)c(Br)c1Cl` yielded a half-maximal inhibitory concentration (IC50) above 200 µM and a Ki above 200 µM.

In the case of `O=C(O)c1cc[nH]n1`, the concentration for half-maximal inhibition (IC50) is above 200 µM and the Ki was above 200 µM.

Compound `COc1ccc(Cn2nnc(C(=O)O)c2N)cc1` registered an IC50 above 200 µM and an inhibitory constant (Ki) above 200 µM.

Regarding `Cc1c(O)c(C=O)nn1-c1ccccc1`, the IC50 was found to be 100 µM and the inhibition constant (Ki) stood at 142 µM.

Turning to `O=C(O)c1cc([N+](=O)[O-])[nH]n1`, the IC50 is above 200 µM and the Ki is above 200 µM.

Regarding `Oc1csc(O)n1`, the half-inhibitory concentration (IC50) was above 200 µM and the inhibition constant (Ki) is above 200 µM.

In turn, `COc1c(-c2ccccc2)nnn1C` came in with an IC50 above 200 µM and a Ki above 200 µM.

In the case of `Cn1cc(C(=O)O)nn1`, the IC50 was above 200 µM and the Ki was above 200 µM.

`[O-][n+]1nn(Cc2ccccc2)c(Br)c1Br`: the 50% inhibitory concentration (IC50) is above 200 µM and the Ki is above 200 µM.

With `C[n+]1nn(Cc2ccccc2)cc1Cl`, the IC50 is above 200 µM and the inhibition constant (Ki) was above 200 µM.

`CN1C=C(Br)N(O)N1` returned a half-inhibitory concentration (IC50) above 200 µM and a Ki above 200 µM.

As for `[O-][n+]1nn(Cc2ccccc2)c(C(=S)Nc2ccccc2)c1Cl`, the IC50 is above 200 µM and the inhibitory constant (Ki) is above 200 µM.

`c1cn[nH]c1` [PYRAZOLE]: the IC50 is above 200 µM and the inhibition constant (Ki) was above 200 µM.

For `OB(O)c1cc[nH]n1`, the IC50 was above 200 µM and the Ki was above 200 µM.

`Cc1nn(C)n(C)c1=S` returned a concentration for half-maximal inhibition (IC50) above 200 µM and an inhibitory constant (Ki) above 200 µM.

`CNC(=O)c1nnn(C)c1O` registered a concentration for half-maximal inhibition (IC50) above 200 µM and a Ki above 200 µM.

Turning to `N#Cc1cccnc1Nc1cccnc1Cl`, the IC50 was above 200 µM and the inhibition constant (Ki) was above 200 µM.

Take `O=C(O)c1cc(C(=O)O)[nH]n1`: the IC50 was above 200 µM and the Ki is above 200 µM.

For `CCOC(=O)c1nnn(-c2ccccc2)c1NC(C)=O`, the half-maximal inhibitory concentration (IC50) is above 200 µM and the inhibition constant Ki is above 200 µM.

In the case of `Cc1c(Cl)[n+]([O-])nn1-c1ccccc1`, the IC50 is above 200 µM and the Ki was above 200 µM.

`O=C(O)c1cnnn1-c1ccccc1` registered an IC50 above 200 µM and an inhibition constant (Ki) above 200 µM.

Consider `O=C(O)c1cn(-c2ccccc2)nn1`, for which the IC50 is above 200 µM and the inhibitory constant (Ki) is above 200 µM.

In turn, `COC(=O)c1n[nH]n(Cc2ccccc2)c1=O` registered a concentration for half-maximal inhibition (IC50) above 200 µM and a Ki above 200 µM.

As to `COc1sc(-c2ccccc2)nc1Cl`, the IC50 is above 200 µM and the Ki is above 200 µM.

The compound `[O-][n+]1nn(-c2ccccc2)c(Br)c1Br` showed a half-inhibitory concentration (IC50) above 200 µM and an inhibitory constant (Ki) above 200 µM.

`CCOC(=O)c1[nH]nnc1C` showed a half-inhibitory concentration (IC50) above 200 µM and an inhibitory constant (Ki) above 200 µM.

Regarding `Cc1c(O)c(C(=O)c2ccccc2)nn1-c1ccccc1`, the IC50 is above 200 µM and the Ki was above 200 µM.

`Clc1csc(-c2ccccc2)n1` gave a concentration for half-maximal inhibition (IC50) above 200 µM and a Ki above 200 µM.

In turn, `Cn1cc(Br)nc1-c1ccccc1` gave a concentration for half-maximal inhibition (IC50) above 200 µM and a Ki above 200 µM.

The compound `O=[N+]([O-])c1cnn(-c2ccccc2)c1` registered an IC50 above 200 µM and an inhibition constant (Ki) above 200 µM.

For `Cc1c(C(=O)O)cnn1C`, the IC50 is above 200 µM and the inhibitory constant (Ki) was above 200 µM.
